From patent US20240398822A1, “METHODS AND COMPOSITIONS FOR TREATING AND MANAGING ALZHEIMER'S DISEASE” (Pharmatrophix, Inc., priority 2021, published 2024)

What was measured:
[1] = Aqueous solubility of the drug substance; assay type: physicochemical; conditions: water
Method: (§1) Preparation of the clinical dosage form consists of a dry fill of the drug substance into gelatin capsules with no excipients. For the Phase II study, capsules with the salt of Formula (II)(200 mg or 400 mg, free base weight) are machine-filled and packaged in blister strips with aluminum foil backing, which are stored in cardboard boxes. Matching placebo capsules are also available in the same packaging.

[2] = Drug substance stability on storage and under accelerated/ICH stress conditions; assay type: physicochemical
Method: as §1

[3] = Phase I (1b) systemic pharmacokinetics, 600 mg b.i.d. for 10 days; assay type: in vivo, human; conditions: for Cmax: human, plasma, po, 600 mg, 600 mg b.i.d. oral, 8 subjects, read-out: Cmax, systemic, arithmetic mean
Method: (§5) A phase 1b studied was conducted in 10 elderly normal subjects for the purpose of obtaining plasma and CSF coordinated drug levels and to further assess safety at a dose of 600 mg bid over a 10-day period. The study was double-blinded and placebo controlled with 8 subjects receiving drug.

[4] = Phase I (1b) cerebrospinal fluid (CSF) levels; assay type: in vivo; conditions: human, day 10, 600 mg b.i.d. oral, 8 subjects, read-out: Cmax in cerebrospinal fluid (CSF), arithmetic mean
SNAP-25 = assay: Phase IIa CSF pre-synaptic biomarker SNAP-25; assay type: in vivo, human
Text: (§2) CSF samples were obtained at screening Visit and final Visit via lumbar puncture to determine levels of tau, p-tau, Aβ40, Aβ42 and AChE activity as an initial set of CSF biomarkers. Aliquots of CSF were made available for emerging CSF biomarker methods such as measurement of additional biomarkers including neurofilaments light chain, neurogranin, SNAP-25, synaptotagmin, YKL-40, TREM2, tau oligomers and for measurement of drug level in selected patients based on the time period between last dose of drug and CSF sampling (FIG. 25 and FIG. 58).
(§3) Baseline CSF samples are obtained prior to administration via lumbar puncture. These samples are used to determine levels of tau, p-tau, Aβ40, Aβ42, AChE, neurofilament light chain, SNAP-25, synaptotagmin-1, neurogranin, sTREM, and YKL-40. Aliquots of CSF are also made available for emerging CSF biomarker methods such as measurement of tau oligomers and for measurement of drug level in selected patients based on time period between last dose of the salt of Formula (II) and CSF sampling. […] Many of these biomarkers can also be measured in blood or plasma. The change in values over the time period from pre-treatment to post-treatment are of particular importance. […] Absolute levels at single time points of neurofilament light chain, SNAP-25, synaptotagmin-1, neurogranin, sTREM, and YKL-40 in CSF or blood or plasma are of less value given differences in assay techniques and wide variation in absolute levels within normal subjects and within and across AD subjects. In contrast, absolute levels of Aβ42 and 40 at baseline are useful biomarkers indicating the presence of amyloid pathology as low levels of Aβ42 and 40 at a given time point are consistent with amyloid pathology.

sTREM2 = assay: Phase IIa CSF glial biomarker sTREM2; assay type: in vivo, human
Text: as §2
Baseline CSF samples are obtained prior to administration via lumbar puncture. These samples are used to determine levels of tau, p-tau, Aβ40, Aβ42, AChE, neurofilament light chain, SNAP-25, synaptotagmin-1, neurogranin, sTREM, and YKL-40. Aliquots of CSF are also made available for emerging CSF biomarker methods such as measurement of tau oligomers and for measurement of drug level in selected patients based on time period between last dose of the salt of Formula (II) and CSF sampling. […] Many of these biomarkers can also be measured in blood or plasma. The change in values over the time period from pre-treatment to post-treatment are of particular importance. […]

YKL-40 = assay: Phase IIa CSF glial biomarker YKL-40; assay type: in vivo, human
Text: as §2, §3

[5] = tested on: patients with mild to moderate Alzheimer's disease; assay: Phase IIa brain glucose metabolism (18F-FDG-PET); assay type: in vivo, human; conditions: for FDG-PET voxel (MCS) analysis, dose comparison: 400 mg versus 200 mg versus placebo
Method: The specific ^18F FDG-PET scan for early detection of AD is conducted at the first and final visits. Quantitative and qualitative estimates of the cerebral glucose rate may be done by using FDG-PET as evident metabolic reduction is already present in patients at early stages of Alzheimer's disease. ^18F FDG-PET scanning is an imaging biomarker for synaptic function. Analyses include anatomical, statistical or voxel-based regions of interest.
FDG-PET using statistical ROI measures derived from ADNI as described in the Chen et al. paper.
Areas showing less decline are highlighted in yellow. It is notable that these areas are relevant to areas that degeneration in AD. […] This method makes possible analysis of FDG-PET signal in a common three-dimensional sampling space with the MRI analysis for each subject thereby enhancing accuracy of FDG-PET analysis and allowing the combination of the two modalities for further analyses and the assessment of the spatial relationship between structural and functional degeneration over time. […] For this analysis, the drug treatment group contains subjects treated with either 200 or 400 mg doses.
FIGS. 56A-56C show FDG PET using group x time interaction patterns. In FIGS. 56A-56C, contrast estimate plots show the magnitude and direction of the interaction effects observed in the flexible factorial GLM.
Therefore, if the actual observed ratio of t-values is close to equivalent in the input map at a given p and k threshold, the MCS ratio and p-value will tend to support the null hypothesis of no drug effect.

[6] = Phase 1 SAD/MAD pharmacokinetics; assay type: in vivo; conditions: in vivo
Text: (§4) The phase 1 study was placebo controlled and double blinded and included 52 subjects in SAD studies and 20 subjects in MAD studies.

[7] = tested on: subjects in SAD and MAD studies; assay: Phase 1 SAD/MAD safety; assay type: in vivo
Text: as §4

[8] = tested on: healthy elderly volunteers; assay: Phase I (1b) safety and tolerability, 600 mg b.i.d. for 10 days
Method: Trial specific stopping rules were set to protect the trial subjects. Dosing would have been stopped for all subjects and the trial terminated if any of the stopping rules had occurred.
15 healthy adults were screened within three weeks prior to the baseline visit. Following 5 screening failures, 10 healthy adults, 5 aged 18-64 years and 5 aged 65-84 years were enrolled.
as §5

[9] = annual percent change (APC), 6-month trial period
[10] = 600 mg b.i.d. oral, 10 days, 8 subjects
[11] = non-serious AE, 600 mg b.i.d. oral, 10 days

SMILES: CC[C@H](C)[C@H](N)C(=O)NCCN1CCOCC1 [LM11A-31-BHS, Tris[(2S,3S)-2-amino-3-methyl-N-(2-morpholinoethyl)pentanamide] tetra(monohydrogensulfate), monosulfate]
- solubility [1]: > 30 mg/mL
- impurities following storage at ICH stress conditions ([2]; GMP lots): no impurities above the LOD
- changes related to assay or impurities ([2]; Phase I drug substance lot, six months accelerated conditions, or 48 months at 25° C./60% RH): no significant changes
- stability under accelerated temperature and humidity conditions ([2]; drug substance): very good stability
- changes in the drug substance on storage ([2]; through 18 months at −20° C., 5° C., 25° C./60% RH or 40° C./75% RH, other than moisture content): no significant changes
- linearity of pharmacokinetics ([3]; 600 mg BID during 10 days): linear
- Cmax ([3]; day 1): 1270 ng/mL
- Cmax ([3]; day 10): 885 ng/mL
- Cmax [4]: 56 ng/mL
- CSF SNAP-25, drug dose analysis (SNAP-25; 200 and 400 mg doses, post hoc Dunn's test does not reach significance): significant main effect of drug dose
- drug effect in slowing or inhibiting the SNAP-25 increase, younger (<72 years) versus older (>=72 years) (SNAP-25; [9]): greater than that found in the older group
- CSF SNAP-25 change in the drug group (SNAP-25; combined drug group, 6 months, drug effect p=0.01): no increase was detected
- CSF sTREM2, drug dose analysis (sTREM2; 200 and 400 mg doses): nominal reduction at the 200 and 400 mg doses
- CSF sTREM2, drug effect (sTREM2; combined drug group, 6-month period): no drug effect was detected
- CSF YKL40 significant increase seen with placebo, drug dose analysis (YKL-40; 200 and 400 mg doses): no longer present at the 200 and 400 mg doses
- drug effect in slowing or inhibiting the pathological glial response (YKL-40), younger (<72 years) versus older (>=72 years) (YKL-40; [9]): greater than that found in the older group
- CSF YKL-40 increase in the drug group (YKL-40; combined drug group, difference between placebo and drug groups p=0.03): This increase was not detected in the drug group
- FDG-PET voxel (MCS) analysis, dose comparison [5]: 400 mg effect is significant and significantly greater than the 200 mg effect
- FDG-PET voxel (MCS) analysis, dose comparison ([5]; listed as LM11A-31): The effect at the 400 mg dose is higher than that at the 200 mg dose
- FDG-PET statistical ROI decline, drug versus placebo ([5]; combined drug group, 6 month period): trend to less decline
- cerebral glucose rate compared to placebo or no treatment ([5]; daily treatment): reduction in the extent of ongoing decrease in cerebral glucose rate
- FDG-PET loss of SUVR signal, dose analysis ([5]; flexible factorial GLM, p<0.05 and cluster size >100): significant effect at both the 200 and 400 mg doses in slowing loss of SUVR signal
- FDG-PET sROI, dose comparison ([5]; not statistically significant): greater trend is observed at 400 compared to the 200 mg dose
- food effect ([6]; human): fed subjects having a higher LM11A-31 parent exposure than fasted subjects
- time to reach steady state upon multiple dosing ([6]; human): approximately 5 days post dose
- gender difference in exposure [6]: female subjects having a greater exposure than males
- pharmacokinetics after single oral doses ([6]; po): linear pharmacokinetics
- deaths, SAEs, severe TEAEs, discontinuations because of an AE ([7]; in vivo): no deaths, SAEs, severe TEAEs, and no subjects were discontinued because of an AE
- intensity of TEAEs ([7]; in vivo): All TEAEs were mild
- laboratory results, physical examination, vital signs, ECG, C-SSRS ([7]; in vivo): No clinically significant laboratory results, physical examination findings, vital signs, ECG findings, or positive scores
- subjects who experienced TEAEs ([7]; multiple doses): 7 of 16
- total TEAEs ([7]; multiple doses): 8
- TEAEs considered unrelated to study drug ([7]; multiple doses, remaining 2 possibly (flatulence) or remotely (nocturia) related): 6
- subjects who experienced a TEAE ([7]; single dose): 1 of 40
- total TEAEs ([7]; single dose, postural dizziness, possibly related): 1
- safety and tolerability ([7]; single doses of 100, 300, 600 and 900 mg free base, multiple doses of 300 BID and 600 mg free base QD): generally safe and well tolerated
- safety and tolerability in repeated dose schedule ([8]; 600 mg BID up to ten days of treatment): support the safety and tolerability
- number of deaths (all causes) ([8]; 600 mg b.i.d. oral, 10 days): 0
- number of deaths resulting from adverse events ([8]; 600 mg b.i.d. oral, 10 days): 0
- serious adverse event Headache, occurrences causally related to treatment/all ([8]; 600 mg b.i.d. oral, 10 days): 0/1
- drug related serious adverse events [8, 10]: 0 drug related adverse events
- mild drug related adverse events [8, 10]: 4 drug related adverse events
- moderate drug related adverse events [8, 10]: 0 drug related adverse events
- severe drug related adverse events [8, 10]: 0 drug related adverse events
- Abdominal pain, occurrences (all) [8, 11]: 1
- Arthralgia, occurrences (all) [8, 11]: 3
- Diarrhea, occurrences (all) [8, 11]: 1
- Dry eye, occurrences (all) [8, 11]: 0
- Flatulence, occurrences (all) [8, 11]: 3
- Gamma-glutamyltransferase increased, occurrences (all) [8, 11]: 1
- Headache, occurrences (all) [8, 11]: 7
- Oropharyngeal pain, occurrences (all) [8, 11]: 0
- Polyuria, occurrences (all) [8, 11]: 1
- Presyncope, occurrences (all) [8, 11]: 0
- alterations in physical examination, vital signs and ECG recordings ([8]; phase 1b, 600 mg bid, 10-day period, 8 subjects receiving drug): no clinically relevant alterations
- changes in haematological and biochemistry parameters ([8]; phase 1b, 600 mg bid, 10 days, neither clinical relevance nor relationship with the study drug): Minimal changes
